Assay results reported in ChEMBL document CHEMBL5385847, “Design, synthesis and biological evaluation of a new class of 7H-pyrrolo[2,3-d]pyrimidine derivatives as Mps1 inhibitors for the treatment of breast cancer” (Eur J Med Chem, 2023).
Calls of active or inactive are those of the source. No cut-off for these calls is given here.

Assays:
4T1 [1] = assay: Induction of apoptosis in 4T1 cells assessed as late apoptotic cells at 5 uM incubated for 48 hrs by Annexin V-FITC/PI staining based flow cytometry (reference value: 1.73 %); assay type: functional, Mus musculus
4T1 [2] = assay: Induction of apoptosis in 4T1 cells assessed as early apoptotic cells at 5 uM incubated for 48 hrs by Annexin V-FITC/PI staining based flow cytometry (reference value: 0.32 %); assay type: functional, Mus musculus
MCF7 [3] = assay: Induction of apoptosis in human MCF7 cells assessed as necrotic cells at 5 uM incubated for 48 hrs by Annexin V-FITC/PI staining based flow cytometry (reference value: 0.03 %); assay type: functional
MCF7 [4] = assay: Induction of apoptosis in human MCF7 cells assessed as late apoptotic cells at 5 uM incubated for 48 hrs by Annexin V-FITC/PI staining based flow cytometry (reference value: 0.63 %); assay type: functional
4T1 [5] = assay: Induction of apoptosis in 4T1 cells assessed as necrotic cells at 5 uM incubated for 48 hrs by Annexin V-FITC/PI staining based flow cytometry (reference value: 0.20 %); assay type: functional, Mus musculus
MCF7 [6] = assay: Induction of apoptosis in human MCF7 cells assessed as early apoptotic cells at 5 uM incubated for 48 hrs by Annexin V-FITC/PI staining based flow cytometry (reference value: 1.19 %); assay type: functional
[7] = biological target: T1, Dual specificity protein kinase TTK (Homo sapiens, UniProt P33981); assay: Inhibition of Mps1 (unknown origin) incubated for 120 mins in presence of substrate/ATP by ADP-Glo assay
T1 sequence (P33981 whole entry): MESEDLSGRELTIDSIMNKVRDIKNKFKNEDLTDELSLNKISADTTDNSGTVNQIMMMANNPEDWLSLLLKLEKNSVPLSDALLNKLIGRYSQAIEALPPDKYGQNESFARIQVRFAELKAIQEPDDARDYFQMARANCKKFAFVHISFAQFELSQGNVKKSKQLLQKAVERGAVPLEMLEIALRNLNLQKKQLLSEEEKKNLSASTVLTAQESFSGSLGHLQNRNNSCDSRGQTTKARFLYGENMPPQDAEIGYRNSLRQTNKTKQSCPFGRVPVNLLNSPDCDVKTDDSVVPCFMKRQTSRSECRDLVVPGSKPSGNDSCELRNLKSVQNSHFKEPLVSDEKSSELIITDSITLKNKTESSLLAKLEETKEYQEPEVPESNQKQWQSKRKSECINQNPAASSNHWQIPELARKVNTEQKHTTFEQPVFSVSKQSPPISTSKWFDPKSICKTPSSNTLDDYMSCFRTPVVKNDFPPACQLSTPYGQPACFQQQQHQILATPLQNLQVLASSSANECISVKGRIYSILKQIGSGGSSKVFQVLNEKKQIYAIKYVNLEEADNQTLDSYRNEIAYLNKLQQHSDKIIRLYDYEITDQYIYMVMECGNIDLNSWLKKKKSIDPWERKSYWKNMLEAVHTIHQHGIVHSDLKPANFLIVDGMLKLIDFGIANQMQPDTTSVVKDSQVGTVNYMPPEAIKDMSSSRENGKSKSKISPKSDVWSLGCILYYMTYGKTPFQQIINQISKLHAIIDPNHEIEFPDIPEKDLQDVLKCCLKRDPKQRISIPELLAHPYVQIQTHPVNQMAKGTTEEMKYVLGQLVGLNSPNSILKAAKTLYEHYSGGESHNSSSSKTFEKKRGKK

4T1-Luc = assay: Antitumor activity against mouse 4T1-Luc cells xenografted in BALB/C mouse assessed as delay in tumor growth at 10 mg/kg, ip dosed once a week for 15 days; assay type: functional, organism-based; settings: time 15.0 day

SMILES	IC50 [7]	also measured
Cc1cc(N2CCOCC2)ccc1Nc1nc(NC2CCCCC2)c2nc[nH]c2n1		Activity (4T1 [1]): 9.86%; Activity (4T1 [2]): 1.56%; Activity (MCF7 [3]): 0.35%; Activity (MCF7 [4]): 4.31%; Activity (4T1 [5]): 0.54%; Activity (MCF7 [6]): 5.46%
Nc1nn(-c2nc(Nc3ccccc3OC(F)(F)F)nc3[nH]ccc23)c2ccccc12	154 nM	
c1cc2c(ccn2-c2nc(Nc3ccc(N4CCOCC4)cc3)nc3[nH]ccc23)cn1	464 nM	
CCc1ccccc1Nc1nc(-n2nc(N)c3ccccc32)c2cc[nH]c2n1	338 nM	
CC(=O)O[C@H]1C(=O)[C@@]2(C)[C@H]([C@H](OC(=O)c3ccccc3)[C@]3(O)C[C@H](OC(=O)[C@H](O)[C@@H](NC(=O)c4ccccc4)c4ccccc4)C(C)=C1C3(C)C)[C@]1(OC(C)=O)CO[C@@H]1C[C@@H]2O		Activity (4T1-Luc): Active
CN1CCN(c2ccc(Nc3nc(-n4ccc5ccccc54)c4cc[nH]c4n3)cc2)CC1	137 nM	
c1ccc2c(c1)ccn2-c1nc(Nc2ccc(N3CCOCC3)cc2)nc2[nH]ccc12	144 nM	
COc1cc(N2CCOCC2)ccc1Nc1nc(-n2ccc3ccccc32)c2cc[nH]c2n1	132 nM	
CN1CCN(c2ccc(Nc3nc(-n4ccc5cnccc54)c4cc[nH]c4n3)cc2)CC1	149 nM	
COc1cc(N2CCOCC2)ccc1Nc1nc(-n2ccc3cnccc32)c2cc[nH]c2n1	154 nM	

The next lines start with results.

IC50 [7]	SMILES	also measured
47 nM	c1ccc2c(c1)ncn2-c1nc(Nc2ccc(N3CCOCC3)cc2)nc2[nH]ccc12	
40 nM	COc1cc(N2CCOCC2)ccc1Nc1nc(-n2cnc3ccccc32)c2cc[nH]c2n1	
35 nM	CN1CCN(c2ccc(Nc3nc(-n4nc(N)c5ccccc54)c4cc[nH]c4n3)cc2F)CC1	
41 nM	Cc1cc(N2CCN(C)CC2)ccc1Nc1nc(-n2nc(N)c3ccccc32)c2cc[nH]c2n1	
106 nM	Nc1nn(-c2nc(Nc3ccccc3)nc3[nH]ccc23)c2ccccc12	
68 nM	Nc1nn(-c2nc(Nc3ccccc3Cl)nc3[nH]ccc23)c2ccccc12	
51 nM	COc1ccccc1Nc1nc(-n2nc(N)c3ccccc32)c2cc[nH]c2n1	
49 nM	Cn1cc(-c2nc(Nc3ccc(N4CCOCC4)cc3)nc3[nH]ccc23)cn1	
33 nM	COc1cc(N2CCOCC2)ccc1Nc1nc(-n2nc(N)c3ccccc32)c2cc[nH]c2n1	
32 nM	CCN1CCN(c2ccc(Nc3nc(-n4nc(N)c5ccccc54)c4cc[nH]c4n3)cc2)CC1	
34 nM	COc1cc(N2CCOCC2)ccc1Nc1nc(-c2cnn(C)c2)c2cc[nH]c2n1	
50 nM	CN1CCN(c2ccc(Nc3nc(-n4nc(N)c5ccccc54)c4cc[nH]c4n3)cc2Cl)CC1	
54 nM	Nc1nn(-c2nc(Nc3ccccc3F)nc3[nH]ccc23)c2ccccc12	
83 nM	CN1CCN(c2ccc(Nc3nc(-n4cnc5ccccc54)c4cc[nH]c4n3)cc2)CC1	
49 nM	Nc1nn(-c2nc(Nc3ccc(N4CCOCC4)cc3)nc3[nH]ccc23)c2ccccc12	
67 nM	CN1CCN(c2ccc(Nc3nc(-c4cnn(C)c4)c4cc[nH]c4n3)cc2)CC1	
